Source: article PMC10331583, “Control of fibrosis with enhanced safety via asymmetric inhibition of prolyl‐tRNA synthetase 1” (EMBO Molecular Medicine, 2023)
Values joined by “and” are separate entries in the source; they are usually repeats but may differ in a detail not shown here. Identical values can stand only once. Like-named read-outs stand apart in the source and are kept apart here.

What was measured:
WI‐26 VA4 cells [1] = assay: Puromycin incorporation assay; assay type: cell-based, human; details: log(inhibitor) vs. response, variable slope (four parameters); concentration in nM
Description: After being rinsed with cold PBS twice, the cells were collected and resuspended in 200 μl of the carbonate bicarbonate buffer (Sigma Aldrich, C3041‐50CAP) with protease inhibitor. The cell lysates were obtained by sonication and centrifugation at 20,000 g for 15 min at 4°C. After protein quantification using a Pierce™ BCA Protein Assay Kit (Thermo Fisher Scientific, 23225), 400 ng of the proteins was coated to ELISA plates for 18 h at 4°C. […] The plates were rinsed with the washing buffer for three times after each antibody incubation step. […] The amount of puromycin incorporated in proteins was determined by measuring the absorbance at 450 nm (reference wavelength at 620 nm). Experimental values marked in red with strikethrough text in the Figure Source Data file were excluded from the analysis. These values were determined by considering the values of biological and technical replicates under the same condition, as well as the values at the former and later chemical concentrations.

[2] = CellTiter‐Glo assay (cytotoxicity); details: human, WI-26 VA4 cells
WI‐26 VA4 cells [3] = assay: CellTiter‐Glo assay (cytotoxicity); details: for activity at 0.003 µM / activity at 0.01 µM / activity at 0.03 µM / activity at 0.1 µM / activity at 0.3 µM / activity at 1 µM / activity at 3 µM / activity at 10 µM / activity at 30 µM / activity at 100 µM: Homo sapiens
WI‐26 VA4 cells [4] = assay: Collagen ELISA (secreted pro‐collagen I)
[5] = log(inhibitor) vs. response, variable slope (four parameters), concentration in nM

Cc1c(Cl)ccc2c1ncn2CC(=O)C[C@H]1NCCC[C@@H]1O [DWN11748]
Puromycin, LogIC50 (best-fit value) (WI‐26 VA4 cells [1]): 3.428 | CC50 at 72 h [2]: 1.44 µM | activity at 0.003 µM (WI‐26 VA4 cells [3]; WI26VA4, read-out: CellTiter-Glo % of control, 3 nM, Experiment #1, replicates): 99.9% | activity at 0.003 µM (WI‐26 VA4 cells [3]; WI26VA4, read-out: CellTiter-Glo % of control, 3 nM, Experiment #2, replicates): 90.9% | activity at 0.01 µM (WI‐26 VA4 cells [3]; WI26VA4, read-out: CellTiter-Glo % of control, 10 nM, Experiment #1, replicates): 90.9% | activity at 0.01 µM (WI‐26 VA4 cells [3]; WI26VA4, read-out: CellTiter-Glo % of control, 10 nM, Experiment #2, replicates): 98.9% | activity at 0.03 µM (WI‐26 VA4 cells [3]; WI26VA4, read-out: CellTiter-Glo % of control, 30 nM, Experiment #1, replicates): 91.9% | activity at 0.03 µM (WI‐26 VA4 cells [3]; WI26VA4, read-out: CellTiter-Glo % of control, 30 nM, Experiment #2, replicates): 83.2% | activity at 0.1 µM (WI‐26 VA4 cells [3]; WI26VA4, read-out: CellTiter-Glo % of control, 100 nM, Experiment #1, replicates): 103% | activity at 0.1 µM (WI‐26 VA4 cells [3]; WI26VA4, read-out: CellTiter-Glo % of control, 100 nM, Experiment #2, replicates): 86% | activity at 0.3 µM (WI‐26 VA4 cells [3]; WI26VA4, read-out: CellTiter-Glo % of control, 300 nM, Experiment #1, replicates): 83.6% | activity at 0.3 µM (WI‐26 VA4 cells [3]; WI26VA4, read-out: CellTiter-Glo % of control, 300 nM, Experiment #2, replicates): 68.5% | activity at 1 µM (WI‐26 VA4 cells [3]; WI26VA4, read-out: CellTiter-Glo % of control, 1000 nM, Experiment #1, replicates): 70.6% | activity at 1 µM (WI‐26 VA4 cells [3]; WI26VA4, read-out: CellTiter-Glo % of control, 1000 nM, Experiment #2, replicates): 67.6% | activity at 3 µM (WI‐26 VA4 cells [3]; WI26VA4, read-out: CellTiter-Glo % of control, 3000 nM, Experiment #1, replicates): 29.5% | activity at 3 µM (WI‐26 VA4 cells [3]; WI26VA4, read-out: CellTiter-Glo % of control, 3000 nM, Experiment #2, replicates): 29.4% | activity at 10 µM (WI‐26 VA4 cells [3]; WI26VA4, read-out: CellTiter-Glo % of control, 10000 nM, Experiment #1, replicates): 30.3% | activity at 10 µM (WI‐26 VA4 cells [3]; WI26VA4, read-out: CellTiter-Glo % of control, 10000 nM, Experiment #2, replicates): 20.9% | activity at 30 µM (WI‐26 VA4 cells [3]; WI26VA4, read-out: CellTiter-Glo % of control, 30000 nM, Experiment #1, replicates): 18.8% | activity at 30 µM (WI‐26 VA4 cells [3]; WI26VA4, read-out: CellTiter-Glo % of control, 30000 nM, Experiment #2, replicates): 10.1% | activity at 100 µM (WI‐26 VA4 cells [3]; WI26VA4, read-out: CellTiter-Glo % of control, 100000 nM, Experiment #1, replicates): 0.73% | activity at 100 µM (WI‐26 VA4 cells [3]; WI26VA4, read-out: CellTiter-Glo % of control, 100000 nM, Experiment #2, replicates): 0.58% | activity at 0.003 µM (WI‐26 VA4 cells [3]; WI26VA4, read-out: CellTiter-Glo % of control, average, 3 nM, average): 102% | activity at 0.01 µM (WI‐26 VA4 cells [3]; WI26VA4, read-out: CellTiter-Glo % of control, average, 10 nM, average): 96.5% | activity at 0.03 µM (WI‐26 VA4 cells [3]; WI26VA4, read-out: CellTiter-Glo % of control, average, 30 nM, average): 91.9% | activity at 0.1 µM (WI‐26 VA4 cells [3]; WI26VA4, read-out: CellTiter-Glo % of control, average, 100 nM, average): 94.6% | activity at 0.3 µM (WI‐26 VA4 cells [3]; WI26VA4, read-out: CellTiter-Glo % of control, average, 300 nM, average): 75.5% | activity at 1 µM (WI‐26 VA4 cells [3]; WI26VA4, read-out: CellTiter-Glo % of control, average, 1000 nM, average): 63.5% | activity at 3 µM (WI‐26 VA4 cells [3]; WI26VA4, read-out: CellTiter-Glo % of control, average, 3000 nM, average): 27.5% | activity at 10 µM (WI‐26 VA4 cells [3]; WI26VA4, read-out: CellTiter-Glo % of control, average, 10000 nM, average): 25.4% | activity at 30 µM (WI‐26 VA4 cells [3]; WI26VA4, read-out: CellTiter-Glo % of control, average, 30000 nM, average): 13.7% | activity at 100 µM (WI‐26 VA4 cells [3]; WI26VA4, read-out: CellTiter-Glo % of control, average, 100000 nM, average): 0.5% | CellTiter-Glo LogIC50 (best-fit value) (WI‐26 VA4 cells [3]; [5]): 3.159 | Collagen, % of control (single replicates per experiment) (WI‐26 VA4 cells [4]; 3 nM, 0.003 µM): 95.16 % of control and 105.95 % of control and 100.28 % of control and 91.81 % of control and 92.46 % of control and 107.08 % of control and 97.10 % of control and 100.74 % of control and 124.62 % of control and 100.86 % of control | Collagen, % of control (single replicates per experiment) (WI‐26 VA4 cells [4]; 100 nM, 0.1 µM): 102.93 % of control and 54.86 % of control and 79.76 % of control and 92.40 % of control and 101.85 % of control and 87.72 % of control and 81.93 % of control and 104.58 % of control and 120.36 % of control | CC50/collagen IC50 (WI‐26 VA4 cells [4]; Fig 5E): 5.39 | IC50 (WI‐26 VA4 cells [4]; Homo sapiens, WI26VA4, read-out: Collagen IC50 (best-fit value), log(inhibitor) vs. response, variable slope (four parameters) (converted)): 0.267 µM | activity at 0.03 µM (WI‐26 VA4 cells [4]; Homo sapiens, WI26VA4, read-out: Collagen, % of control (single replicates per experiment), 30 nM): 104% | activity at 0.3 µM (WI‐26 VA4 cells [4]; Homo sapiens, WI26VA4, read-out: Collagen, % of control (single replicates per experiment), 300 nM): 46.5% | activity at 1 µM (WI‐26 VA4 cells [4]; Homo sapiens, WI26VA4, read-out: Collagen, % of control (single replicates per experiment), 1000 nM): 7.82% | activity at 0.003 µM (WI‐26 VA4 cells [4]; Homo sapiens, WI26VA4, read-out: Collagen, % of control, average, 3 nM, average): 102% | activity at 0.01 µM (WI‐26 VA4 cells [4]; Homo sapiens, WI26VA4, read-out: Collagen, % of control, average, 10 nM, average): 100% | activity at 0.03 µM (WI‐26 VA4 cells [4]; Homo sapiens, WI26VA4, read-out: Collagen, % of control, average, 30 nM, average): 97.7% | activity at 0.1 µM (WI‐26 VA4 cells [4]; Homo sapiens, WI26VA4, read-out: Collagen, % of control, average, 100 nM, average): 88.9% | activity at 0.3 µM (WI‐26 VA4 cells [4]; Homo sapiens, WI26VA4, read-out: Collagen, % of control, average, 300 nM, average): 45.3% | activity at 1 µM (WI‐26 VA4 cells [4]; Homo sapiens, WI26VA4, read-out: Collagen, % of control, average, 1000 nM, average): 9.08% | activity at 3 µM (WI‐26 VA4 cells [4]; Homo sapiens, WI26VA4, read-out: Collagen, % of control, average, 3000 nM, average): 2.58% | activity at 10 µM (WI‐26 VA4 cells [4]; Homo sapiens, WI26VA4, read-out: Collagen, % of control, average, 10000 nM, average): 2.33% | Collagen HillSlope (best-fit value) (WI‐26 VA4 cells [4]; log(inhibitor) vs. response, variable slope (four parameters)): -2.011 | Collagen LogIC50 (best-fit value) (WI‐26 VA4 cells [4]; [5]): 2.427 | Relative (CC50)/(collagen IC50) (WI‐26 VA4 cells [4]; relative to HF, Fig 5E): 1.61
